Test results published in patent publication US20220170052A1, “USE OF BACTERIOCIN-PRODUCING ETHANOLOGENS IN BIOFUEL PRODUCTION” (Wisconsin Alumni Research Foundation, priority 2016, published 2022).
Where no end group is shown, it is not given here.

Columns and labels:
[1] = tested on: wild lactic acid bacteria isolated from ethanol plants; assay: Sensitivity of 15 wild lactic acid bacteria isolated from ethanol plants to inhibitors in corn steep liquor broth (CSL); assay type: cell-based; conditions: share of 15 wild LAB isolates, 33° C.
Source text: Pediocin and brochocin are known to inhibit a particular range of LAB, and serve as exemplary model bacteriocins. Other bacteriocins with equal or even broader inhibition ranges may be, based on the present disclosure, synthesized and secreted in a similar manner. Table 8 compares the effectiveness of three different LAB bacteriocins against the three antibiotics most commonly utilized in the ethanol industry as well as another industry antimicrobial ingredient, hop acids. […] Fifteen strains representative of the organisms isolated from corn ethanol plants were utilized. […] The bacteriocins were utilized at either levels currently being produced (pediocin), at levels reported by others in the research literature (nisin) using commercially available preparations, or in an assay system that allows for analyzing relatively broad range of concentrations (brochocin inhibition assay by agar diffusion).

[2] = tested on: ethanol plant isolates (LAB); assay: Growth (O.D.600) of ethanol plant isolates in corn mash extract with added pediocin; assay type: cell-based, lactic acid bacteria; conditions: Pediocin (Sigma) 500 ng/ml in corn mash extract, 37° C.
Source text: Screening LAB isolated from ethanol plants for susceptibility to pediocin or brochocin. A variety of microorganisms are known to contaminate bioethanol fermentations, however LAB, particularly lactobacilli, are of primary concern (Beckner et al., 2011). The inventors' laboratory has isolated sixty-two LAB from four ethanol plants in the Midwest region of the United States. This ethanol plant culture collection contains isolates of Lb. fermentum, Lb. plantarum, Lb. brevis, Lb. mucosae, Lb. helveticus, Lb. heilongjiangensis, Lb. amylovorous, Lb. casei, Enterococcus sp. and Pediococcus pentosaceus strains that were gathered from all stages of the ethanol fermentation process. Thirty of these cultures were propagated from frozen by sequential transfers through MRS broth and corn mash extract, a filtrate obtained from corn mash from a bioethanol plant. Pediocin (Sigma) was added at 500 ng/ml to corn mash extract, inoculated with one of the ethanol plant isolates, incubated at 37° C. and growth was monitored by following O.D.600.

For `CC[C@H]1OC(=O)[C@H](C)[C@@H](O[C@H]2C[C@@](C)(OC)[C@@H](O)[C@H](C)O2)[C@H](C)[C@@H](O[C@@H]2O[C@H](C)C[C@H](N(C)C)[C@H]2O)[C@](C)(O)C[C@@H](C)C(=O)[C@H](C)[C@@H](O)[C@]1(C)O` [Erythromycin], which Resistant ([1]; Erythromycin 1 μg/mL) is on record?
Its Resistant is 7%.

And the Sensitive ([1]; Erythromycin 1 μg/mL)?
Its Sensitive is 93%.

Which Resistant ([1]; Penicillin 6 μg/mL) does the source give for Penicillin here?
The Resistant was 33%.

What about the Sensitive ([1]; Penicillin 6 μg/mL) of the same compound?
The Sensitive was 77%.

Virginiamycin was tested. Which Resistant ([1]; Virginiamycin 3 μg/mL) did it give?
Its Resistant is 13%.

What about the Sensitive ([1]; Virginiamycin 3 μg/mL) of the same compound?
Its Sensitive is 87%.

Which Resistant ([1]; Nisin 500 ng/mL) does the source give for nisin here?
Its Resistant is 13%.

And the Sensitive ([1]; Nisin 500 ng/mL)?
Its Sensitive is 87%.

For “pediocin (KYYGNGVTCGKHSCSVDWGKATTCIINNGAMAWATGGHQGNHKC; ends and bridges not checked; cysteine pairing not given here; UniProt P29430 19-62, looked up) [Class IIa bacteriocin; commercial preparation (Sigma), used at the concentration produced by Lb. casei E3 (pNZPed+)]”, which Resistant ([1]; Pediocin 500 IU/mL) is on record?
Its Resistant is 67%.

And the Sensitive ([1]; Pediocin 500 IU/mL)?
Its Sensitive is 33%.

What about the “ethanol plant isolates whose growth was inhibited” value [2] of the same compound?
Its value is “five of the thirty”.
